The results in this text go back to US20240246946A1, “MODULATORS OF TREX1” (Constellation Pharmaceuticals, Inc., priority 2021, published 2024).

The target of experiment [1] is T1, human TREX2 (residues M44-A279) (Homo sapiens, UniProt Q9BQ50).
T1 construct: human TREX2 (residues M44-A279, expressed in E. coli); made in house; host or cells: E. coli
T1 sequence (Q9BQ50 44-279 isoform Q9BQ50-1): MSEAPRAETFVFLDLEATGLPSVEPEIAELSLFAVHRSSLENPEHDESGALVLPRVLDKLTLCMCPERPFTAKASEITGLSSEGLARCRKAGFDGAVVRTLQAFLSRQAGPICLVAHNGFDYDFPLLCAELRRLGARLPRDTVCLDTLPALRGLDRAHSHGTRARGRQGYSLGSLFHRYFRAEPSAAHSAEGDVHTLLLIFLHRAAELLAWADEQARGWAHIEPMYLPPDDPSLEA
In words: hTREX2 Biochemical Assay (fluorescence, dsDNA substrate degradation). The note with it: biochemical selectivity for hTREX1 vs hTREX2. The gist of the method: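 Fluorogenic dsDNA degradation read at 615 nm (570 nm excitation) after EDTA quench. Final 60 nM substrate, 50 pM His-Tev-tagged enzyme, 5 mM MgCl2, pH 7.4, 1.0% DMSO; 4 h compound–enzyme preincubation then 18 h reaction, both 25 °C; 10-point titration.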

Another experiment deals with T2, full length mouse TREX1 (Mus musculus, UniProt Q91XB0).
T2 construct: N-terminally His-Tev tagged full length mouse TREX1; made in house; host or cells: E. coli
T2 sequence (Q91XB0 1-314): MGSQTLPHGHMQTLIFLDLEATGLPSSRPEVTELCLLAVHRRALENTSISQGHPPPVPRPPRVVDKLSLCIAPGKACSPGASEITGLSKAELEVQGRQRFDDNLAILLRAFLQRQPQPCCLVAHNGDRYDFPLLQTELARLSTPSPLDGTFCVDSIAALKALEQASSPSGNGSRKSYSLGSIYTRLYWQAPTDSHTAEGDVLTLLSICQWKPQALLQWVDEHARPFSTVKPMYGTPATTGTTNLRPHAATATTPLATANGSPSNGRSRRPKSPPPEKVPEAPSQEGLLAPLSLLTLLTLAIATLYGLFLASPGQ
In words: mTREX1 Biochemical Assay (fluorescence, dsDNA substrate degradation). The note with it: biochemical, read-out: mTREX1 IC50. The gist of the method: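 Reaction run 18 h at 25° C. with 60 nM TEX615/quencher-labelled dsDNA and 6 pM mouse TREX1 in Tris buffer (pH 7.4, 5 mM MgCl2, 1.0% DMSO), enzyme having sat 4 h with compound across 10 concentrations. EDTA quench; substrate degradation measured as fluorescence increase.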

A further experiment deals with T3, full length human TREX1 (Homo sapiens, UniProt Q9NSU2).
T3 construct: N-terminally His-Tev tagged full length human TREX1; made in house; host or cells: E. coli
T3 sequence (Q9NSU2 1-314): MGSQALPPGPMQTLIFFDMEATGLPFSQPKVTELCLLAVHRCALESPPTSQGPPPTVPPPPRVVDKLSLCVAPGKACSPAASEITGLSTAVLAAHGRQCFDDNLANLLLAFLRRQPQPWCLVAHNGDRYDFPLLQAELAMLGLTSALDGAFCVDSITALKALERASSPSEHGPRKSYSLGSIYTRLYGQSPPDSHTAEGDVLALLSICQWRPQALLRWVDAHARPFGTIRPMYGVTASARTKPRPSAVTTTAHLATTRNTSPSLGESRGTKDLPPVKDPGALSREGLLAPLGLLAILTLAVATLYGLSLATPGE
In words: hTREX1 Biochemical Assay (fluorescence, dsDNA substrate degradation). To be noted: biochemical, read-out: hTREX1 IC50. Put shortly: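 Fluorescence rises as enzyme degrades a quenched TEX615-labelled dsDNA substrate (60 nM) in 50 mM Tris, 150 mM NaCl, 5 mM MgCl2, pH 7.4. Full-length His-Tev-tagged human TREX1, 4 pM, sits with compound 4 hours at 25° C before substrate; reaction 18 hours, stopped with EDTA.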

One may read the IC50 as the midpoint of a concentration-inhibition curve.

With `CCn1cc(C(c2cc(F)ccc2Cl)C(C)c2nc(C(=O)Nc3cnoc3)c(O)c(=O)n2C)cn1` (single isomer, unassigned) [Example 60 D2E2], the “hTREX1 vs hTREX2 selectivity” value in experiment [1] is reported as “A (A = <25 fold selective for hTREX1)”. The IC50 on full length mouse TREX1 and at full length human TREX1 was above 10 nM each time.

For the compound `CC(c1nc(C(=O)Nc2cnoc2)c(O)c(=O)n1C)C(c1cnn(C)c1)c1ccc(O)cc1C#N` (single isomer, unassigned) [Example 80 D1E2], in experiment [1], the “hTREX1 vs hTREX2 selectivity” value is recorded as “C (C = >50 fold selective for hTREX1)”. Also, the concentration for half-maximal inhibition (IC50) at full length mouse TREX1 and on full length human TREX1 was above 10 nM throughout.

For the compound `CC(c1nc(C(=O)Nc2cnoc2)c(O)c(=O)n1C)C(c1ccccc1Cl)c1nncn1C` (single isomer, unassigned) [Example 152 D2E1], the “hTREX1 vs hTREX2 selectivity” value in experiment [1] was “B (B = 25 to 50-fold selective for hTREX1)”. Besides, the IC50 at full length mouse TREX1 and at full length human TREX1 was above 10 nM throughout.

For the compound `CCn1c(C(C)C(c2cnn(C)c2)c2ccccc2C#N)nc(C(=O)Nc2cnoc2)c(O)c1=O` (single isomer, unassigned) [Example 149 D1E1], the “hTREX1 vs hTREX2 selectivity” value in experiment [1] is “A (A = <25 fold selective for hTREX1)”. The IC50 at full length mouse TREX1 and at full length human TREX1 was above 10 nM each time.

For the compound `CC(c1nc(C(=O)Nc2cnoc2)c(O)c(=O)n1C)C(c1cnn(CC(C)(C)O)c1)c1cc(F)ccc1Cl` (single isomer, unassigned) [Example 92 D1E2], the “hTREX1 vs hTREX2 selectivity” value in experiment [1] is recorded as “A (A = <25 fold selective for hTREX1)”. Besides, the IC50 at full length mouse TREX1 is above 10 nM; on full length human TREX1 it was 1 to 10 nM.

`Cc1cn(C(c2ccccc2Cl)C(C)c2nc(C(=O)Nc3cnoc3)c(O)c(=O)n2C)cn1` (single isomer, unassigned) [Example 142 D1E1]: in experiment [1], the “hTREX1 vs hTREX2 selectivity” value was “A (A = <25 fold selective for hTREX1)”. For the same compound, the IC50 at full length mouse TREX1 and at full length human TREX1 was above 10 nM each time.

Consider `CCn1c(C(C)C(c2cnn(C)c2)c2ccccc2C#N)nc(C(=O)Nc2cnoc2)c(O)c1=O` (single isomer, unassigned) [Example 149 D2E1], for which the “hTREX1 vs hTREX2 selectivity” value in experiment [1] is given as “A (A = <25 fold selective for hTREX1)”. The IC50 on full length mouse TREX1 and at full length human TREX1 was above 10 nM in each case.

Turning to `CC(c1nc(C(=O)Nc2cnoc2)c(O)c(=O)n1C)C(c1ccccc1Cl)n1cnc2ccccc21` (single isomer, unassigned) [Example 143 D1E2], the “hTREX1 vs hTREX2 selectivity” value in experiment [1] is “A (A = <25 fold selective for hTREX1)”. Moreover, the half-inhibitory concentration (IC50) on full length mouse TREX1 and at full length human TREX1 was above 10 nM throughout.

`CC(c1nc(C(=O)Nc2cnoc2)c(O)c(=O)n1C)C(c1cnn(CC2COC2)c1)c1ccccc1Cl` (single isomer, unassigned) [Example 88 D2E2]: the “hTREX1 vs hTREX2 selectivity” value in experiment [1] is “A (A = <25 fold selective for hTREX1)”. Further, the IC50 on full length mouse TREX1 and on full length human TREX1 was above 10 nM throughout.

`COCCn1ncc(C(c2cc(F)ccc2C#N)C(C)c2nc(C(=O)Nc3cnoc3)c(O)c(=O)n2C)c1C` (single isomer, unassigned) [Example 104 D1E2]: in experiment [1], the “hTREX1 vs hTREX2 selectivity” value is given as “A (A = <25 fold selective for hTREX1)”. Further, the 50% inhibitory concentration (IC50) on full length mouse TREX1 and at full length human TREX1 was above 10 nM throughout.

`Cc1cnc(C)c(C(c2cc(F)ccc2C#N)C(C)c2nc(C(=O)Nc3cnoc3)c(O)c(=O)n2C)n1` (single isomer, unassigned) [Example 119 DIE1]: the “hTREX1 vs hTREX2 selectivity” value in experiment [1] is listed as “C (C = >50 fold selective for hTREX1)”. The IC50 on full length mouse TREX1 is 1 to 10 nM; at full length human TREX1, below 1 nM.

For `CC(c1nc(C(=O)Nc2cnoc2)c(O)c(=O)n1C)C(c1ccccc1C#N)c1ccnn1C` (single isomer, unassigned) [Example 1 D2E2], the “hTREX1 vs hTREX2 selectivity” value in experiment [1] was “B (B = 25 to 50-fold selective for hTREX1)”. Also, the 50% inhibitory concentration (IC50) on full length mouse TREX1 and on full length human TREX1 was above 10 nM each time.

For the compound `CC(c1nc(C(=O)Nc2cnoc2)c(O)c(=O)n1C)C(c1ccccc1Cl)c1cnn(C)c1C#N` (single isomer, unassigned) [Example 96 D2E1], in experiment [1], the “hTREX1 vs hTREX2 selectivity” value is “A (A = <25 fold selective for hTREX1)”. Further, the IC50 on full length mouse TREX1 and on full length human TREX1 was above 10 nM each time.

As for `CC(c1nc(C(=O)Nc2cnoc2)c(O)c(=O)n1C)C(c1ccccc1)c1cccnc1C#N` (single isomer, unassigned) [Example 155 D1E1], in experiment [1], the “hTREX1 vs hTREX2 selectivity” value is on record as “B (B = 25 to 50-fold selective for hTREX1)”. Also, the IC50 on full length mouse TREX1 and on full length human TREX1 was above 10 nM in each case.

Consider `Cc1nnc(C(c2ccccc2Cl)C(C)c2nc(C(=O)Nc3cnoc3)c(O)c(=O)n2C)o1` (single isomer, unassigned) [Example 156 D2E1], for which the “hTREX1 vs hTREX2 selectivity” value in experiment [1] is “A (A = <25 fold selective for hTREX1)”. In addition, the IC50 on full length mouse TREX1 and at full length human TREX1 was above 10 nM in each case.

As to `Cc1nn(C)c(C)c1C(c1cc(F)ccc1C#N)C(C)c1nc(C(=O)Nc2cnoc2)c(O)c(=O)n1C` (single isomer, unassigned) [Example 109 D1E2], in experiment [1], the “hTREX1 vs hTREX2 selectivity” value is listed as “A (A = <25 fold selective for hTREX1)”. Moreover, the IC50 at full length mouse TREX1 and on full length human TREX1 was above 10 nM each time.

With `COCCn1cc(C(c2cc(F)ccc2Cl)C(C)c2nc(C(=O)Nc3cnoc3)c(O)c(=O)n2C)cn1` (single isomer, unassigned) [Example 97 D1E2], the “hTREX1 vs hTREX2 selectivity” value in experiment [1] is “A (A = <25 fold selective for hTREX1)”. For the same compound, the IC50 at full length mouse TREX1 is above 10 nM; at full length human TREX1, 1 to 10 nM.

As to `CC(=O)N(C)c1nn(C)cc1C(c1ccccc1C#N)C(C)c1nc(C(=O)Nc2cnoc2)c(O)c(=O)n1C` (single isomer, unassigned) [Example 153 D1E2], in experiment [1], the “hTREX1 vs hTREX2 selectivity” value was “A (A = <25 fold selective for hTREX1)”. Besides, the IC50 on full length mouse TREX1 and on full length human TREX1 was above 10 nM in each case.

`Cc1ccc(C(c2ccccc2C#N)C(C)c2nc(C(=O)Nc3cnoc3)c(O)c(=O)n2C)cn1` (single isomer, unassigned) [Example 5 D2E1]: the “hTREX1 vs hTREX2 selectivity” value in experiment [1] is on record as “B (B = 25 to 50-fold selective for hTREX1)”. The IC50 at full length mouse TREX1 and at full length human TREX1 was above 10 nM throughout.

For the compound `CC(c1nc(C(=O)Nc2cnoc2)c(O)c(=O)n1C)C(c1cnn(CCOC(F)(F)F)c1)c1cc(F)ccc1C#N` (single isomer, unassigned) [Example 101 D1E1], in experiment [1], the “hTREX1 vs hTREX2 selectivity” value is on record as “A (A = <25 fold selective for hTREX1)”. In addition, the IC50 on full length mouse TREX1 and on full length human TREX1 was above 10 nM each time.

For `CCn1ncc(C(c2ccccc2C#N)C(C)c2nc(C(=O)Nc3cnoc3)c(O)c(=O)n2C)c1C` (single isomer, unassigned) [Example 68 D2E1], the “hTREX1 vs hTREX2 selectivity” value in experiment [1] is reported as “B (B = 25 to 50-fold selective for hTREX1)”. The IC50 at full length mouse TREX1 is above 10 nM; at full length human TREX1 it was below 1 nM.

On to `CCn1cc(C(c2cc(F)ccc2Cl)C(C)c2nc(C(=O)Nc3cnoc3)c(O)c(=O)n2C)cn1` (single isomer, unassigned) [Example 60 D2E1], for which, in experiment [1], the “hTREX1 vs hTREX2 selectivity” value was “A (A = <25 fold selective for hTREX1)”. The IC50 at full length mouse TREX1 and at full length human TREX1 was above 10 nM throughout.

Regarding `Cc1ncc(C(c2ccccc2Cl)C(C)c2nc(C(=O)Nc3cnoc3)c(O)c(=O)n2C)nc1C` (single isomer, unassigned) [Example 125 D1E1], the “hTREX1 vs hTREX2 selectivity” value in experiment [1] is recorded as “A (A = <25 fold selective for hTREX1)”. The IC50 at full length mouse TREX1 and on full length human TREX1 was above 10 nM throughout.

For the compound `CC(c1nc(C(=O)Nc2cnoc2)c(O)c(=O)n1C)C(c1cnn(CC(C)(C)O)c1)c1ccccc1Cl` (single isomer, unassigned) [Example 86 D2E2], the “hTREX1 vs hTREX2 selectivity” value in experiment [1] is given as “A (A = <25 fold selective for hTREX1)”. Besides, the IC50 on full length mouse TREX1 and at full length human TREX1 was above 10 nM in each case.
